Laboratory results published in EP4014973B1, “INHALED LIQUID FOR THE TREATMENT OF RESPIRATORY INFECTIONS IN HUMANS CAUSED BY PATHOGENS RESISTANT TO ANTIBIOTICS” (Conick Biotech LLC, priority 2020, dated 2022).
Where two headings read alike, the source gives them in different places.

Key:
Pasteurella = assay: In vitro comparative zone diameter test on Müller-Hinton-Agar; assay type: cell-based; settings: amount used: novel compound 0.05 mL, Cephalosporin 0.1 mL, Ampicillin 0.2 mL
Cryptococcus = assay: as above; assay type: cell-based; settings: amount used: novel compound 0.05 mL, Cephalosporin 0.1 mL, Ampicillin 0.2 mL
Campylobacter = assay: as above; assay type: cell-based; settings: amount used: novel compound 0.05 mL, Cephalosporin 0.1 mL, Ampicillin 0.2 mL
Microsporidia = assay: as above; assay type: cell-based; settings: amount used: novel compound 0.05 mL, Cephalosporin 0.1 mL, Ampicillin 0.2 mL
Histoplasma capsulatum = assay type: cell-based; settings: Müller-Hinton-Agar, amount used: novel compound 0.05 mL, Cephalosporin 0.1 mL, Ampicillin 0.2 mL
Micrococcus = assay: In vitro comparative zone diameter test on Müller-Hinton-Agar; assay type: cell-based; settings: amount used: novel compound 0.05 mL, Cephalosporin 0.1 mL, Ampicillin 0.2 mL
Candida = assay: as above; assay type: cell-based; settings: amount used: novel compound 0.05 mL, Cephalosporin 0.1 mL, Ampicillin 0.2 mL
mice [1] = settings: p.o., 2,000 µL / kg
rats [2] = settings: p.o., 2,250 µL / kg
mice [3] = test system: mice
rats [4] = test system: rats
humans = assay: Clinical pilot study of side effects after inhalation; settings: 80 humans
[5] = inhalatory application, 2,250 µL / kg
[6] = inhalatory application, after 14 days
[7] = inhalatory application, 2,500 µL / kg
[8] = inhalation, 10ml 2% / 30 kg every 8 hours for seven (7) days

Structure (SMILES): CC1(C)S[C@@H]2[C@H](NC(=O)[C@H](N)c3ccccc3)C(=O)N2[C@H]1C(=O)O [Ampicilin, Ampicillin]
- R (evaluation of the results by zone diameter) (Pasteurella): MS (5 - 9 mm: moderately sensitive: MS)
- zone diameter (Pasteurella): 5 mm
- R (evaluation of the results by zone diameter) (Cryptococcus): R (0mm - 4mm: resistant: R)
- zone diameter (Cryptococcus): 0 mm
- R (evaluation of the results by zone diameter) (Campylobacter): MS (5 - 9 mm: moderately sensitive: MS)
- zone diameter (Campylobacter): 7 mm
- R (evaluation of the results by zone diameter) (Microsporidia): R (0mm - 4mm: resistant: R)
- zone diameter (Microsporidia): 3 mm
- R (evaluation of the results by zone diameter) (Histoplasma capsulatum): R (0mm - 4mm: resistant: R)
- zone diameter (Histoplasma capsulatum): 2 mm
- R (evaluation of the results by zone diameter) (Micrococcus): R (0mm - 4mm: resistant: R)
- zone diameter (Micrococcus): 0 mm
- R (evaluation of the results by zone diameter) (Candida): R (0mm - 4mm: resistant: R)
- zone diameter (Candida): 4 mm

Structure (SMILES): C=CCc1ccc(O)c(OC)c1.CCN(CC)CC(=O)Nc1c(C)cccc1C [Novel Compound, N-[N'-(carboxymethylenyl-2,6-dimethyl-aniline)-N,N-diethylammonium]-[2'-methoxy-4'-(2'-propenyl)]-phenolate.]
- R (evaluation of the results by zone diameter) (Pasteurella): ES (21 mm and more: extremely sensitive: ES)
- zone diameter (Pasteurella): 36 mm
- R (evaluation of the results by zone diameter) (Cryptococcus): ES (21 mm and more: extremely sensitive: ES)
- zone diameter (Cryptococcus): 31 mm
- R (evaluation of the results by zone diameter) (Campylobacter): ES (21 mm and more: extremely sensitive: ES)
- zone diameter (Campylobacter): 32 mm
- R (evaluation of the results by zone diameter) (Microsporidia): ES (21 mm and more: extremely sensitive: ES)
- zone diameter (Microsporidia): 30 mm
- R (evaluation of the results by zone diameter) (Micrococcus): ES (21 mm and more: extremely sensitive: ES)
- zone diameter (Micrococcus): 38 mm
- R (evaluation of the results by zone diameter) (Candida): ES (21 mm and more: extremely sensitive: ES)
- zone diameter (Candida): 33 mm
- Breading and cardiac functions (mice [1]): regular
- time after which discomfort symptoms disappeared (mice [1]): 1 to 3 min
- mice that changed their behavior and demonstrated light discomfort (running, anxiety) (mice [1]; out of hundred (100)): 23
- Breading and cardiac functions (rats [2]): regular
- time after which discomfort symptoms disappeared (rats [2]): 1 to 3 min
- rats that changed their behavior and demonstrated light discomfort (running, anxiety) (rats [2]; out of hundred (100)): 37
- Breading and cardiac functions (mice [3]; [5]): regular
- time after which discomfort symptoms disappeared (mice [3]; [5]): 3 to 5 min
- mice that changed their behavior and demonstrated discomfort (running, anxiety) (mice [3]; inhalatory application, 2,250 µL / kg, out of hundred (100)): 21
- reexamination of the animals (mice [3]; [6]): no new irregularities were found
- Breading and cardiac functions (rats [4]; [7]): regular
- time after which discomfort symptoms disappeared (rats [4]; [7]): 5 to 6 min
- rats that changed their behavior and demonstrated discomfort (running, anxiety) (rats [4]; inhalatory application, 2,500 µL / kg, out of hundred (100)): 29
- reexamination of the animals (rats [4]; [6]): no new irregularities were found
- C Reactive Protein (CRP) measurements (humans; blood samples before the test, on the 4th and 8th day): no inflammation was developed
- pulse frequency and blood pressure (humans; during the inhalation, 10ml 2% / 30 kg every 8 hours for seven (7) days): not significantly altered
- Electrocardiography measurements (humans; during the intake, 10ml 2% / 30 kg every 8 hours for seven (7) days): regular without any pathological and irregular oscillations
- coughing (humans; in the very beginning of the test): Sporadic coughing was recorded in some participants
- bronchospasms (humans; [8]): No bronchospasms were recorded
- dyspnea (humans; [8]): No dyspnea was recorded
- respiratory function (humans; [8]): not disturbed
